Experiment: Amount in a composition achieving the characteristic cooling effect of menthol
Format: in vivo
Conditions: amount present in a composition; equivalent amounts relative to menthol
Source text: For purposes of achieving the characteristic “cooling effect” of menthol, an equivalent amount of another compound sufficient to impart the characteristic “cooling effect” of menthol is about 50 ppm, preferably about 100 ppm or even 200 or 300 ppm of menthyl lactate, about 20 ppm, preferably about 40 ppm or even 50 or 75 ppm of monomenthyl succinate, and about 0.01 ppm, preferably about 0. 1 ppm or even 0.3 or 0.5 ppm of isopulegol. Using these relative conversions, one of ordinary skill in the art may readily substitute one or more compounds to achieve the relative “cooling effect” of menthol.

| Structure (SMILES) | amount sufficient to impart the characteristic cooling effect of menthol |
| --- | --- |
| CC1CCC(C(C)C)C(O)C1 (stereo not drawn) [menthol] | ≥ 25 ppm |
| CC(C)[C@@H]1CC[C@@H](C)C[C@H]1OC(=O)CCC(=O)O [monomenthyl succinate] | about 20 ppm |
| CC1CCC(C(C)C)C(OC(=O)C(C)O)C1 (stereo not drawn) [menthyl lactate] | about 50 ppm |
| C=C(C)[C@@H]1CC[C@@H](C)C[C@H]1O [isopulegol] | about 0.01 ppm |

Experiment: Amount in a composition achieving the characteristic nasal action of menthol
Format: in vivo
Conditions: amount present in a composition; equivalent amounts relative to menthol
Source text: For purposes of achieving the characteristic “nasal action” of menthol, an equivalent amount of another compound sufficient to impart the characteristic “nasal action” of menthol is about 0.5 ppm, preferably about 1 ppm or even 2 or 3 ppm of methone, about 0.5 ppm, preferably about 1 ppm or even 2 or 3 ppm of isomethone, about 0.1 ppm, preferably about 0.2 ppm or even 0.3 or 0.5 ppm of eucalyptol, and about 10 ppm, preferably about 20 ppm or even 30 or 50 ppm of camphor. Using these relative conversions, one of ordinary skill in the art may readily substitute one or more compounds to achieve the relative “nasal action” of menthol.

| Structure (SMILES) | amount sufficient to impart the characteristic nasal action of menthol |
| --- | --- |
| CC12CCC(CC1)C(C)(C)O2 [eucalyptol] | about 0.1 ppm |
| CC12CCC(CC1=O)C2(C)C (stereo not drawn) [camphor] | about 10 ppm |
| CC1CCC(C(C)C)C(O)C1 (stereo not drawn) [menthol] | ≥ 3 ppm |
| CC(C)[C@@H]1CC[C@H](C)CC1=O [isomethone, isomenthone] | about 0.5 ppm |
| CC(C)[C@@H]1CC[C@@H](C)CC1=O [methone, menthone] | about 0.5 ppm |
